Data reported in patent US11124785B2, “Rothia subtilisins, S8A family proteases, as therapeutic enzymes for application in gluten intolerance disorders” (TRUSTEES OF BOSTON UNIVERSITY, priority 2016, dated 2021).

Legend:
Type in all cases: biochemical
gliadins = assay: Gliadin degradation control of Example 3 (SDS-PAGE); settings: gliadins 500 μg/ml, enzyme 25 μg/ml, pH 8.0
Method: (§1) FIGS. 15A-15F show effective ATI degradation by subtilisins from B. subtilis (nattokinase). […] ATI (500 μg/ml) incubated with Rmep from R. mucilaginosa (FIG. 15A) or nattokinase from B. subtilis (FIG. 15C) at 50, 25, or 10 μg/ml; FIGS. 15B and 15D, Gliadins (500 μg/ml) incubated with Rmep (FIG. 15B) or nattokinase (FIG. 15D) at 25 μg/ml. FIGS. 15E and 15F, ATIs incubated with control heat inactivated enzymes, Rmep (FIG. 15E) or nattokinase (FIG. 15F).
(§2) ATIs were isolated from wheat cultivars as described^3. They were incubated at a final concentration of 500 μg/ml with 10, 25 or 50 μg/ml Rmep (from R. mucilaginosa), or nattokinase (from B. subtilis). The controls incubations were carried out with heat-inactivated Rmep and nattokinase. Experiments were conducted in 50 mM Tris-HCl, pH 8.0. After 0, 15 min, 30 min, 1 h, and 4 h incubation, 20 μl aliquots were removed, mixed with SDS-sample buffer, heated at 85° C. for 5 min and analyzed by 4-12% SDS PAGE. Proteins were visualized with Coomassie Blue staining.

[1] = test system: gliadin-derived FRET substrate QGSFQP; assay: FRET substrate hydrolysis, QGSFQP; settings: substrate 100 μM, Rmep 1 μg/ml, pH 8.0
Method: (§3) FIG. 4D and FIG. 4E are representative graphs of the hydrolysis of gliadin-derived FRET substrates. FRET substrates containing QPQLPY (SEQ ID NO: 22), PQPQPQ (SEQ ID NO: 23) and QGSFQP (SEQ ID NO: 24), each at 100 μM, were incubated with Rmep […] and subtilisin A (FIG. 4E), at 1 μg/ml and 0.5 μg/ml, respectively. Controls were boiled Rmep and subtilisin A incubated with PQPQLPY (+) (SEQ ID NO: 25), PQPQPQ (⋄) (SEQ ID NO: 23) and QGSFQP (*) (SEQ ID NO: 24) (no activity, baseline).
(§4) FRET substrate hydrolysis—Three fluorescence resonance energy transfer (FRET) substrates comprising the hexapeptides QPQLPY (SEQ ID NO: 22), PQPQPQ (SEQ ID NO: 23) and QGSFQP (SEQ ID NO: 24) were synthesized with at the N-terminus the HILYTE FLUOR™ 488 label, and at the C-terminus with K(QXL520) (Anaspec, Fremont, Calif.). Rmep (1 μg/ml) and subtilisin A (0.5 μg/ml) were incubated with the substrates (100 μM) in 50 mM TrisHCl pH 8.0. Samples were incubated at 37° C. and fluorescence increase, indicating hydrolysis, was measured every 5 min for 30 min, and every 10 min for the next 30 min, at λex 485 nm and λem 520 nm, using a Genios microtiter plate reader in the kinetic mode.

[2] = test system: gliadin-derived FRET substrate QPQLPY; assay: FRET substrate hydrolysis, QPQLPY; settings: substrate 100 μM, Rmep 1 μg/ml, pH 8.0, 37° C.
Method: as §3, §4

wheat ATI proteins = assay: Degradation of amylase-trypsin inhibitors (SDS-PAGE); settings: ATIs 500 μg/ml, enzyme 10, 25 or 50 μg/ml, pH 8.0, up to 4 h
Method: as §1, §2

Substance: Rmep: DEAE pooled fraction F2 of R. mucilaginosa ATCC 25296 extract with highest gluten-degrading enzyme activity; contains subtilisins C6R5V9_9MICC and C6R5W1_9MICC
- degradation of gliadins (gliadins): degraded
- hydrolysis of FRET substrate QGSFQP [1]: not cleaved
- hydrolysis of FRET substrate QPQLPY [2]: rapidly hydrolyzed
- degradation of wheat ATI proteins (wheat ATI proteins): resistant to degradation
